The values below are quoted from earlier work in patent US20030133995A1, “Ingestible capsaicin neutralizer” (priority 2002, published 2003).

Structures are written as SMILES.

In series [1] the test system is tongue. The conditions noted are these: pure form diluted one hundred thousand fold.
The conditions of series [2]: pure capsaicin.
For series [3] the following is noted: pure form.

As to `COc1cc(CNC(=O)CCCC/C=C/C(C)C)ccc1O` [capsaicin, N-Vanillyl-8-methyl-6-(E)-noneamide], in series [1], the “blistering of the tongue” value is listed as “can cause blistering of the tongue”. The heat sensation result in series [2] is reported as “approximately 16,000,000 Scoville units”. For the same molecule, the “solubility in aqueous solutions” value in series [3] (aqueous solutions) is given as “not very soluble”. The “solubility in fats, oils and alcohols” value in series [3] (fats, oils and alcohols) is listed as “quite soluble”.
